In the supplement of paper PMC11208160:

Assay: recombinant UMI read abundance after kanamycin selection (control-corrected) (log10(CPM+1)); higher = more efficient recombination; extreme values may be limits of the assay; sequences stand for … in AGTGCAGAGAAAATCGGCCAGTTTTCTCTGCCTGCAGTCCGCATGCCGTGGGACCCCTTGGGTTCTAACCTGTTGCCTAGATTTATGCAGCGGACTGCCTTTCTCCCAAAGTGATAAACCGG…AGGTTGGTTTCACT; site = the 11-nt donor
Method in brief: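 In Escherichia coli, a pool of donor and donor-binding-loop pairs, each with a 12-nt UMI, was tested for the IS621 bridge recombinase. Plating was on IPTG (0.07 mM) plus kanamycin, or without selection, in two replicates. Recombinant UMIs were amplified by PCR across the donor–target junction and sequenced, and counts were reported as log10(CPM+1) after averaging and control-derived scaling.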
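Also: IS621 bridge recombinase in Escherichia coli cells against a fixed T5 target plasmid.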

Going from “CACTTGGCATGGACCGGTTTTCCCGGTAATCCGTATTTGGT (site CACTTGGCTGC)” to “CACTTGGCATGGACCGGTTTTCCCGGTAATCCGTATTTGGT (site CACTTGGCTTC)”, the “recombinant UMI read abundance (log10)” value falls from 1.88 to 0.0133.

Compared with “CACTTGGCATGGACCGGTTTTCCCGGTAATCCGTATTTGTA (site CACTTGGCTTA)”, “CACTTGGCATGGACCGGTTTTCCCGGTAATCCGTATTTGTA (site CACTTGGCTTC)” is lower in “recombinant UMI read abundance (log10)” value: 1.46 for the first, 0.00904 for the second.

First: CACTTGGCATGGACCGGTTTTCCCGGTAATCCGTATTTGTA (site CACTTGGCTTG)
Second: CACTTGGCATGGACCGGTTTTCCCGGTAATCCGTATTTGTA (site CACTTGGCTTT)
The “recombinant UMI read abundance (log10)” value of the first is higher: 1.47 for the first, 0.75 for the second.

“CACTTTCCATGGACCGGTTTTCCCGGTAATCCGTATTTGAG (site CACTTTCCTCT)” and “CACTTTGCATGGACCGGTTTTCCCGGTAATCCGTATTTGGA (site CACTTAGCTTC)” are within 0.2 log units of each other in “recombinant UMI read abundance (log10)” value: 0.0778 for the first, 0.0269 for the second.

“CACTTTGCATGGACCGGTTTTCCCGGTAATCCGTATTTGGA (site CACTTCGCTTC)” and “CACTTTGCATGGACCGGTTTTCCCGGTAATCCGTATTTGGA (site CACTTGGCTTC)” are within 0.2 log units of each other in “recombinant UMI read abundance (log10)” value: 0.0129 for the first, 0.0264 for the second.

Going from “CACTTTGCATGGACCGGTTTTCCCGGTAATCCGTATTTGGA (site CACTTTGCTTC)” to “CAGAACCCATGGACCGGTTTTCCCGGTAATCCGTATTTGCC (site CAGAACCCTGG)”, the “recombinant UMI read abundance (log10)” value falls from 1.71 to 0.

Going from “CAGAATCCATGGACCGGTTTTCCCGGTAATCCGTATTTGAT (site CAGAATCCTAT)” to “CAGAATCCATGGACCGGTTTTCCCGGTAATCCGTATTTGAT (site CGGAATCCTAA)”, the “recombinant UMI read abundance (log10)” value falls from 1.84 to 0.

Going from “CAGAATCCATGGACCGGTTTTCCCGGTAATCCGTATTTGTT (site CAGAATCCTAA)” to “CAGAATCCATGGACCGGTTTTCCCGGTAATCCGTATTTGTT (site CCGAATCCTAA)”, the “recombinant UMI read abundance (log10)” value falls from 2.07 to 0.

“CAGAATCCATGGACCGGTTTTCCCGGTAATCCGTATTTGTT (site CGGAATCCTAA)” and “CAGAATCCATGGACCGGTTTTCCCGGTAATCCGTATTTGTT (site CTGAATCCTAA)” are within 0.2 log units of each other in “recombinant UMI read abundance (log10)” value: 0.0121 for the first, 0 for the second.

“CAGAGGCCATGGACCGGTTTTCCCGGTAATCCGTATTTGCT (site CAGAGGCCTAG)” and “CAGAGTCCATGGACCGGTTTTCCCGGTAATCCGTATTTGCC (site CAGAGTCCTGG)” are within 0.2 log units of each other in “recombinant UMI read abundance (log10)” value: 1.68 for the first, 1.8 for the second.

Compared with “CAGAGTCCATGGACCGGTTTTCCCGGTAATCCGTATTTGTT (site CAGAGTCCTAA)”, “CAGAGTCCATGGACCGGTTTTCCCGGTAATCCGTATTTGTT (site CGGAATCCTAA)” is lower in “recombinant UMI read abundance (log10)” value: 1.92 for the first, 0 for the second.

Compared with “CAGATAACATGGACCGGTTTTCCCGGTAATCCGTATTTGGG (site CAGATAACTCC)”, “CAGCAACCATGGACCGGTTTTCCCGGTAATCCGTATTTGCA (site CAGCAACCTTG)” is lower in “recombinant UMI read abundance (log10)” value: 1.1 for the first, 0 for the second.

First: CAGCAATCATGGACCGGTTTTCCCGGTAATCCGTATTTGGT (site CAGCAATCTAC)
Second: CAGCCTTCATGGACCGGTTTTCCCGGTAATCCGTATTTGGT (site AAGCCTTCTAC)
The “recombinant UMI read abundance (log10)” value of the first is higher: 2.73 for the first, 0 for the second.

Compared with “CAGCCTTCATGGACCGGTTTTCCCGGTAATCCGTATTTGGT (site CAGCCTTCTAC)”, “CAGCCTTCATGGACCGGTTTTCCCGGTAATCCGTATTTGGT (site GAGCCTTCTAC)” is lower in “recombinant UMI read abundance (log10)” value: 0.949 for the first, 0.00376 for the second.

“CAGCCTTCATGGACCGGTTTTCCCGGTAATCCGTATTTGGT (site TAGCCTTCTAC)” and “CAGCCTTCATGGACCGGTTTTCCCGGTAATCCGTATTTGTG (site CAGCCTTCTCA)” are within 0.2 log units of each other in “recombinant UMI read abundance (log10)” value: 0.0206 for the first, 0.108 for the second.

First: CAGCGTGCATGGACCGGTTTTCCCGGTAATCCGTATTTGCT (site CAGCGTGCTAG)
Second: CAGCTAGCATGGACCGGTTTTCCCGGTAATCCGTATTTGAA (site AAGCTAGCTTT)
The “recombinant UMI read abundance (log10)” value of the first is higher: 2.76 for the first, 0.0151 for the second.

Going from “CAGCTAGCATGGACCGGTTTTCCCGGTAATCCGTATTTGAA (site CAGCTAGCTTT)” to “CAGCTAGCATGGACCGGTTTTCCCGGTAATCCGTATTTGAA (site GAGCTAGCTTT)”, the “recombinant UMI read abundance (log10)” value falls from 2.54 to 0.0499.

Going from “CAGCTAGCATGGACCGGTTTTCCCGGTAATCCGTATTTGAA (site TAGCTAGCTTT)” to “CAGGCAACATGGACCGGTTTTCCCGGTAATCCGTATTTGTG (site CAGGCAACTCA)”, the “recombinant UMI read abundance (log10)” value rises from 0.596 to 0.912.

“CAGGCGCCATGGACCGGTTTTCCCGGTAATCCGTATTTGTG (site CAAGCGCCTCA)” and “CAGGCGCCATGGACCGGTTTTCCCGGTAATCCGTATTTGTG (site CACGCGCCTCA)” are within 0.2 log units of each other in “recombinant UMI read abundance (log10)” value: 0.0213 for the first, 0 for the second.

First: CAGGCGCCATGGACCGGTTTTCCCGGTAATCCGTATTTGTG (site CAGGCGCCTCA)
Second: CAGGCGCCATGGACCGGTTTTCCCGGTAATCCGTATTTGTG (site CATGCGCCTCA)
The “recombinant UMI read abundance (log10)” value of the first is higher: 0.428 for the first, 0.0319 for the second.

Compared with “CAGGGCCCATGGACCGGTTTTCCCGGTAATCCGTATTTGCA (site CAGGGCCCTTG)”, “CAGGGCCCATGGACCGGTTTTCCCGGTAATCCGTATTTGTT (site CAAGGCCCTAA)” is lower in “recombinant UMI read abundance (log10)” value: 1.24 for the first, 0 for the second.

First: CAGGGCCCATGGACCGGTTTTCCCGGTAATCCGTATTTGTT (site CACGGCCCTAA)
Second: CAGGGCCCATGGACCGGTTTTCCCGGTAATCCGTATTTGTT (site CAGGGCCCTAA)
The “recombinant UMI read abundance (log10)” value of the first is lower: 0.025 for the first, 0.381 for the second.

Compared with “CAGGGCCCATGGACCGGTTTTCCCGGTAATCCGTATTTGTT (site CATGGCCCTAA)”, “CAGGGCTCATGGACCGGTTTTCCCGGTAATCCGTATTTGTT (site CAGGGCTCTAA)” is higher in “recombinant UMI read abundance (log10)” value: 0.00426 for the first, 2.71 for the second.

“CAGGTTCCATGGACCGGTTTTCCCGGTAATCCGTATTTGAA (site CAGGTTCCTTT)” and “CAGGTTGCATGGACCGGTTTTCCCGGTAATCCGTATTTGGC (site CAGGTTGCTGC)” are within 0.2 log units of each other in “recombinant UMI read abundance (log10)” value: 1.98 for the first, 2.08 for the second.

First: CAGTAAGCATGGACCGGTTTTCCCGGTAATCCGTATTTGTG (site CAGTAAGCTCA)
Second: CAGTCCACATGGACCGGTTTTCCCGGTAATCCGTATTTGGG (site CAGTCAACTCC)
The “recombinant UMI read abundance (log10)” value of the first is higher: 2.41 for the first, 0.00382 for the second.

“CAGTCCACATGGACCGGTTTTCCCGGTAATCCGTATTTGGG (site CAGTCCACTCC)” and “CAGTCCACATGGACCGGTTTTCCCGGTAATCCGTATTTGGG (site CAGTCGACTCC)” are within 0.2 log units of each other in “recombinant UMI read abundance (log10)” value: 0.00714 for the first, 0.024 for the second.

Going from “CAGTCCACATGGACCGGTTTTCCCGGTAATCCGTATTTGGG (site CAGTCTACTCC)” to “CAGTCCGCATGGACCGGTTTTCCCGGTAATCCGTATTTGCT (site CAGTCCGCTAG)”, the “recombinant UMI read abundance (log10)” value rises from 0 to 2.64.

First: CAGTCCTCATGGACCGGTTTTCCCGGTAATCCGTATTTGCC (site CAATCCTCTGG)
Second: CAGTCCTCATGGACCGGTTTTCCCGGTAATCCGTATTTGCC (site CACTCCTCTGG)
The “recombinant UMI read abundance (log10)” value of the first is higher: 2.78 for the first, 2.05 for the second.

Compared with “CAGTCCTCATGGACCGGTTTTCCCGGTAATCCGTATTTGCC (site CAGTCCTCTGG)”, “CAGTCCTCATGGACCGGTTTTCCCGGTAATCCGTATTTGCC (site CATTCCTCTGG)” is lower in “recombinant UMI read abundance (log10)” value: 2.38 for the first, 0.879 for the second.

First: CAGTCGACATGGACCGGTTTTCCCGGTAATCCGTATTTGTG (site CAGTCGACTCA)
Second: CAGTCGACATGGACCGGTTTTCCCGGTAATCCGTATTTGTG (site CAGTCGACTCC)
The “recombinant UMI read abundance (log10)” value of the first is higher: 0.661 for the first, 0.022 for the second.

“CAGTCGACATGGACCGGTTTTCCCGGTAATCCGTATTTGTG (site CAGTCGACTCG)” and “CAGTCGACATGGACCGGTTTTCCCGGTAATCCGTATTTGTG (site CAGTCGACTCT)” are within 0.2 log units of each other in “recombinant UMI read abundance (log10)” value: 0.00379 for the first, 0.00896 for the second.

“CAGTCGTCATGGACCGGTTTTCCCGGTAATCCGTATTTGGG (site CAGTCGACTCC)” and “CAGTCGTCATGGACCGGTTTTCCCGGTAATCCGTATTTGGG (site CAGTCGCCTCC)” are within 0.2 log units of each other in “recombinant UMI read abundance (log10)” value: 0.00913 for the first, 0.0207 for the second.

Going from “CAGTCGTCATGGACCGGTTTTCCCGGTAATCCGTATTTGGG (site CAGTCGGCTCC)” to “CAGTCGTCATGGACCGGTTTTCCCGGTAATCCGTATTTGGG (site CAGTCGTCTCC)”, the “recombinant UMI read abundance (log10)” value rises from 0.0122 to 0.348.

First: CAGTGCTCATGGACCGGTTTTCCCGGTAATCCGTATTTGAA (site CAATGCTCTTT)
Second: CAGTGCTCATGGACCGGTTTTCCCGGTAATCCGTATTTGAA (site CACTGCTCTTT)
The “recombinant UMI read abundance (log10)” value of the first is higher: 1.35 for the first, 0.28 for the second.

First: CAGTGCTCATGGACCGGTTTTCCCGGTAATCCGTATTTGAA (site CAGTGCTCTTT)
Second: CAGTGCTCATGGACCGGTTTTCCCGGTAATCCGTATTTGAA (site CATTGCTCTTT)
The “recombinant UMI read abundance (log10)” value of the first is higher: 2.48 for the first, 0.0098 for the second.

Going from “CAGTGGACATGGACCGGTTTTCCCGGTAATCCGTATTTGGG (site CAGTAGACTCC)” to “CAGTGGACATGGACCGGTTTTCCCGGTAATCCGTATTTGGG (site CAGTCGACTCC)”, the “recombinant UMI read abundance (log10)” value falls from 0.368 to 0.0117.

“CAGTGGACATGGACCGGTTTTCCCGGTAATCCGTATTTGGG (site CAGTGGACTCC)” and “CAGTGGACATGGACCGGTTTTCCCGGTAATCCGTATTTGGG (site CAGTTGACTCC)” are within 0.2 log units of each other in “recombinant UMI read abundance (log10)” value: 0.0835 for the first, 0.0125 for the second.

With “CAGTTAGCATGGACCGGTTTTCCCGGTAATCCGTATTTGTG (site CAGTTAGCTCA)” the “recombinant UMI read abundance (log10)” value was 2.09.
